The text below walks through data of ChEMBL document CHEMBL2380275, “Synthesis of new heterocyclic hybrids based on pyrazole and thiazolidinone scaffolds as potent inhibitors of tyrosinase” (Bioorg Med Chem, 2013).

By inhibition is commonly meant the relative decrease from the control value, in per cent. For orientation: IC50 means the point on the concentration scale where inhibition reaches its midpoint. Usually Ki stands for the dissociation constant of the complex between target and ligand, obtained from inhibition or displacement. A high value points to a looser hold on the target.

Experiment [1] concerns the target T1, Tyrosinase (Agaricus bisporus) (UniProt O42713).
T1 sequence (whole entry): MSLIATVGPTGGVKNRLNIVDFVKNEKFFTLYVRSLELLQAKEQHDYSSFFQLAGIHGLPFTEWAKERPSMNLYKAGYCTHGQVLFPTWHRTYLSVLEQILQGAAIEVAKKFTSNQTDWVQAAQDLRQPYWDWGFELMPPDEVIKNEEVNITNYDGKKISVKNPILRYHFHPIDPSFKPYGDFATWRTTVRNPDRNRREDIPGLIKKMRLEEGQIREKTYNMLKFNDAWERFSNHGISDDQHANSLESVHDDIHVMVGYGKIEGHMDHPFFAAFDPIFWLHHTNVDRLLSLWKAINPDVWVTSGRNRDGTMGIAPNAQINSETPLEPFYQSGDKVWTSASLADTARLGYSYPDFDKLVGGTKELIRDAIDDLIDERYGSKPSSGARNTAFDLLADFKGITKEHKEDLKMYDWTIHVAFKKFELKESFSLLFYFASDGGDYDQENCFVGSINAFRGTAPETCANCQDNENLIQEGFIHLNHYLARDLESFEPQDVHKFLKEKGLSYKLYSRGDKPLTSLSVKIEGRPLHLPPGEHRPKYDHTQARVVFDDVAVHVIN
Description: Inhibition of mushroom tyrosinase using L-DOPA as substrate at 200 uM preincubated for 10 mins by spectrophotometric analysis relative to control.

Experiment [2] deals with T2, Tyrosinase (Agaricus bisporus, UniProt O42713).
T2 sequence (O42713 whole entry): T1 sequence (whole entry)
Briefly: Inhibition of mushroom tyrosinase using L-DOPA as substrate preincubated for 10 mins by spectrophotometric analysis.

Experiment [3] deals with T2, Tyrosinase.
Description: Competitive inhibition of mushroom tyrosinase diphenolase activity assessed as L-DOPA conversion to dopachrome by Lineweaver-Burk plot analysis
Experiment [4] has as its target T1, Tyrosinase (Agaricus bisporus). Briefly: Reversible inhibition of mushroom tyrosinase diphenolase activity assessed as L-DOPA conversion to dopachrome by Lineweaver-Burk plot analysis.

The source made the active and inactive calls. The calls are words filed in the database; no cut-off is given here.

For the compound `COc1ccc(NC2=NC(=O)/C(=C/c3cn(-c4ccccc4)nc3-c3ccc(Br)cc3)S2)c(OC)c1`, the inhibition in experiment [1] came out at 87.9%. At Tyrosinase [2], 131 µM corresponded to half-maximal inhibition (IC50). The Ki at Tyrosinase [3] came out at 9.46 µM.

`COc1ccc(NC2=NC(=O)/C(=C/c3cn(-c4ccccc4)nc3-c3ccccc3Cl)S2)c(OC)c1`: the inhibition result in experiment [4] was “Active”. In addition, the inhibition in experiment [1] was 126%. At Tyrosinase [2], half-maximal inhibition (IC50) required 34.1 µM. The compound further showed a Ki on Tyrosinase [3] of 29.1 µM.

Take `COc1ccc(NC2=NC(=O)/C(=C/c3cn(-c4ccccc4)nc3-c3ccc(C)cc3)S2)c(OC)c1`: in experiment [1], the inhibition turned out to be 13.5%. This compound came in with a half-inhibitory concentration (IC50) at Tyrosinase [2] of 194 µM.

With `COc1ccc(-c2nn(-c3ccccc3)cc2/C=C2\SC(Nc3ccc(OC)cc3OC)=NC2=O)cc1`, the inhibition in experiment [1] worked out at 46.8%. Moreover, the IC50 against Tyrosinase [2] came to 114 µM.

Take `COc1ccc(NC2=NC(=O)/C(=C/c3cn(-c4ccccc4)nc3-c3ccc(Cl)cc3Cl)S2)c(OC)c1`: the inhibition in experiment [1] was found to be 52%. This compound registered an IC50 against Tyrosinase [2] of 81.7 µM. On Tyrosinase [3], this compound came in with a Ki of 16.9 µM.

Consider `COc1ccc(NC2=NC(=O)/C(=C/c3cn(-c4ccccc4)nc3-c3ccc(F)cc3)S2)c(OC)c1`, for which the inhibition in experiment [1] was found to be 54.2%. The IC50 against Tyrosinase [2] stood at 104 µM. The compound also returned a Ki on Tyrosinase [3] of 7.18 µM.

For `COc1ccc(NC2=NC(=O)/C(=C/c3cn(-c4ccccc4)nc3-c3ccccc3)S2)c(OC)c1`, in experiment [1], the inhibition was 8.03%.

`COc1ccc(NC2=NC(=O)/C(=C/c3cn(-c4ccccc4)nc3-c3cccc(Cl)c3)S2)c(OC)c1`: the inhibition entry in experiment [4] was “Active”. For the same compound, the inhibition in experiment [1] came to 110%. The same compound gave an IC50 against Tyrosinase [2] of 52.6 µM. The compound further had a Ki on Tyrosinase [3] of 21.5 µM.

As to `COc1ccc(NC2=NC(=O)/C(=C/c3cn(-c4ccccc4)nc3-c3ccc(Cl)cc3)S2)c(OC)c1`, the inhibition in experiment [1] was found to be 38%. The 50% inhibitory concentration (IC50) on Tyrosinase [2] amounted to 74 µM. On Tyrosinase [3], this compound showed a Ki of 5.7 µM.
